In patent US6355799B1, “Substituted benzene compounds, process for their preparation, and herbicidal and defoliant compositions containing them” (ISK Americas Incorporated, priority 1997, dated 2002):

Legend:
Format in all cases: in vivo
[1] = system: barnyardgrass (Echinochloa crus-galli, ECHCG); test: Post-emerge test, greenhouse herbicide activity screening; conditions: post-emerge, 14 days after application, rating scale 0-100
Method in brief: (§1)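 Fourteen days after spraying, crop and weed injury was graded visually from 0, no effect, to 100, every plant dead. Test substances were dissolved in acetone and applied at 15–1000 g ai/ha with a flat-fan nozzle. Application was either pre-emergence, one day after sowing, or post-emergence at the 2–3 leaf stage.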

[2] = system: lambsquarters (Chenopodium album, CHEAL); test: as above; conditions: post-emerge, 14 days after application, rating scale 0-100
Method in brief: as §1

[3] = system: ivyleaf morningglory (Ipomoea hederacea, IPOHE); test: as above; conditions: post-emerge, 14 days after application, rating scale 0-100
Method in brief: as §1

[4] = system: large crabgrass (Digitaria sanguinalis, DIGSA); test: as above; conditions: post-emerge, 14 days after application, rating scale 0-100
Method in brief: as §1

[5] = system: green foxtail (Setaria viridis, SETVI); test: as above; conditions: post-emerge, 14 days after application, rating scale 0-100
Method in brief: as §1

[6] = system: velvetleaf (Abutilon theophrasti, ABUTH); test: as above; conditions: post-emerge, 14 days after application, rating scale 0-100
Method in brief: as §1

[7] = system: sicklepod (Cassia obtusifolia, CASOB); test: as above; conditions: post-emerge, 14 days after application, rating scale 0-100
Method in brief: as §1

[8] = system: redroot pigweed (Amaranthus retroflexus, AMARE); test: as above; conditions: post-emerge, 14 days after application, rating scale 0-100
Method in brief: as §1

[9] = system: johnsongrass (Sorghum halepense, SORHA); test: as above; conditions: post-emerge, 14 days after application, rating scale 0-100
Method in brief: as §1

[10] = system: field corn (Zea mays L., var. Dekalb 535, CORN); test: Post-emerge test, crop safety; conditions: post-emerge, 14 days after application, rating scale 0-100
Method in brief: (§2)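 Sandy loam pots; pre-emerge: sown 1 d pre-spray, surface-watered after, then bottom-watered. Post-emerge: sown 8–21 d before, 2–3 leaf stage, + 0.25% v/v NIS, bottom-watered. Acetone, 187 l/ha track spray, 15–1000 g ai/ha. 0–100 injury score, day 14.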

[11] = system: upland rice (Oryza sp., var. Tebonnet, RICE); test: Post-emerge test, crop safety; conditions: post-emerge, 14 days after application, rating scale 0-100
Method in brief: as §2

[12] = system: barnyardgrass (Echinochloa crus-galli, ECHCG); test: Pre-emerge test, greenhouse herbicide activity screening; conditions: rated 14 days after application, 0 = no damage, 100 = complete death
Method in brief: as §2

[13] = system: lambsquarters (Chenopodium album, CHEAL); test: as above; conditions: rated 14 days after application, 0 = no damage, 100 = complete death
Method in brief: as §2

[14] = system: ivyleaf morningglory (Ipomoea hederacea, IPOHE); test: as above; conditions: rated 14 days after application, 0 = no damage, 100 = complete death
Method in brief: as §2

[15] = system: large crabgrass (Digitaria sanguinalis, DIGSA); test: as above; conditions: rated 14 days after application, 0 = no damage, 100 = complete death
Method in brief: as §2

[16] = system: green foxtail (Setaria viridis, SETVI); test: as above; conditions: rated 14 days after application, 0 = no damage, 100 = complete death
Method in brief: as §2

[17] = system: velvetleaf (Abutilon theophrasti, ABUTH); test: as above; conditions: rated 14 days after application, 0 = no damage, 100 = complete death
Method in brief: as §2

[18] = system: sicklepod (Cassia obtusifolia, CASOB); test: as above; conditions: rated 14 days after application, 0 = no damage, 100 = complete death
Method in brief: as §2

[19] = system: johnsongrass (Sorghum halepense, SORHA); test: as above; conditions: rated 14 days after application, 0 = no damage, 100 = complete death
Method in brief: as §2

[20] = system: redroot pigweed (Amaranthus retroflexus, AMARE); test: as above; conditions: rated 14 days after application, 0 = no damage, 100 = complete death
Method in brief: as §2

[21] = system: field corn (Zea mays L., var. Dekalb 535, CORN); test: Pre-emerge test, crop safety; conditions: rated 14 days after application, 0 = no damage, 100 = complete death
Method in brief: (§3)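 Compounds in acetone were track-sprayed at 187 l/ha, 15–1000 g ai/ha, onto sandy loam pots. Pre-emerge seeds were sown one day before spraying, with surface watering afterwards. Post-emerge plants were at the 2–3 leaf stage and sprayed with 0.25% v/v non-ionic surfactant. Injury was rated 0–100 at 14 days.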

[22] = system: upland rice (Oryza sp., var. Tebonnet, RICE); test: Pre-emerge test, crop safety; conditions: rated 14 days after application, 0 = no damage, 100 = complete death
Method in brief: as §3

## COc1c(Cl)cc(F)c(-n2c(=O)cc(C(F)(F)F)n(C)c2=O)c1NC(=O)C=Cc1ccc(Cl)cc1 [2-84]
[1]; 63 g ai/ha
  phytotoxicity rating ECHCG: 0
[1]; 250 g ai/ha
  phytotoxicity rating ECHCG: 0
[2]; 63 g ai/ha
  phytotoxicity rating CHEAL: 30
[2]; 250 g ai/ha
  phytotoxicity rating CHEAL: 80
[3]; 63 g ai/ha
  phytotoxicity rating IPOHE: 30
[3]; 250 g ai/ha
  phytotoxicity rating IPOHE: 70
[4]; 63 g ai/ha
  phytotoxicity rating DIGSA: 0
[4]; 250 g ai/ha
  phytotoxicity rating DIGSA: 0
[5]; 63 g ai/ha
  phytotoxicity rating SETVI: 30
[5]; 250 g ai/ha
  phytotoxicity rating SETVI: 0
[6]; 63 g ai/ha
  phytotoxicity rating ABUTH: 30
[6]; 250 g ai/ha
  phytotoxicity rating ABUTH: 100
[7]; 63 g ai/ha
  phytotoxicity rating CASOB: 20
[7]; 250 g ai/ha
  phytotoxicity rating CASOB: 100
[8]; 63 g ai/ha
  phytotoxicity rating AMARE: 80
[8]; 250 g ai/ha
  phytotoxicity rating AMARE: 100
[9]; 63 g ai/ha
  phytotoxicity rating SORHA: 0
[9]; 250 g ai/ha
  phytotoxicity rating SORHA: 0
[10]; 63 g ai/ha
  phytotoxicity rating CORN: 10
[10]; 250 g ai/ha
  phytotoxicity rating CORN: 10
[11]; 63 g ai/ha
  phytotoxicity rating RICE: 0
[11]; 250 g ai/ha
  phytotoxicity rating RICE: 20
[12]; 63 g ai/ha
  Pre-emerge Herbicidal Activity, phytotoxicity rating (0-100), ECHCG: 0
[12]; 250 g ai/ha
  Pre-emerge Herbicidal Activity, phytotoxicity rating (0-100), ECHCG: 0
[13]; 63 g ai/ha
  Pre-emerge Herbicidal Activity, phytotoxicity rating (0-100), CHEAL: 40
[13]; 250 g ai/ha
  Pre-emerge Herbicidal Activity, phytotoxicity rating (0-100), CHEAL: 100
[14]; 63 g ai/ha
  Pre-emerge Herbicidal Activity, phytotoxicity rating (0-100), IPOHE: 0
[14]; 250 g ai/ha
  Pre-emerge Herbicidal Activity, phytotoxicity rating (0-100), IPOHE: 0
[15]; 63 g ai/ha
  Pre-emerge Herbicidal Activity, phytotoxicity rating (0-100), DIGSA: 00
[15]; 250 g ai/ha
  Pre-emerge Herbicidal Activity, phytotoxicity rating (0-100), DIGSA: 0
[16]; 63 g ai/ha
  Pre-emerge Herbicidal Activity, phytotoxicity rating (0-100), SETVI: 0
[16]; 250 g ai/ha
  Pre-emerge Herbicidal Activity, phytotoxicity rating (0-100), SETVI: 50
[17]; 63 g ai/ha
  Pre-emerge Herbicidal Activity, phytotoxicity rating (0-100), ABUTH: 0
[17]; 250 g ai/ha
  Pre-emerge Herbicidal Activity, phytotoxicity rating (0-100), ABUTH: 80
[18]; 63 g ai/ha
  Pre-emerge Herbicidal Activity, phytotoxicity rating (0-100), CASOB: 0
[18]; 250 g ai/ha
  Pre-emerge Herbicidal Activity, phytotoxicity rating (0-100), CASOB: 0
[19]; 63 g ai/ha
  Pre-emerge Herbicidal Activity, phytotoxicity rating (0-100), SORHA: 0
[19]; 250 g ai/ha
  Pre-emerge Herbicidal Activity, phytotoxicity rating (0-100), SORHA: 0
[20]; 63 g ai/ha
  Pre-emerge Herbicidal Activity, phytotoxicity rating (0-100), AMARE: 80
[20]; 250 g ai/ha
  Pre-emerge Herbicidal Activity, phytotoxicity rating (0-100), AMARE: 100
[21]; 63 g ai/ha
  Pre-emerge phytotoxicity rating (0-100), crop damage, CORN: 0
[21]; 250 g ai/ha
  Pre-emerge phytotoxicity rating (0-100), crop damage, CORN: 0
[22]; 63 g ai/ha
  Pre-emerge phytotoxicity rating (0-100), crop damage, RICE: 0
[22]; 250 g ai/ha
  Pre-emerge phytotoxicity rating (0-100), crop damage, RICE: 0

## COc1c(Cl)cc(F)c(-n2c(=O)cc(C(F)(F)F)n(C)c2=O)c1NC(=O)CCc1ccccc1 [2-86]
[1]; 63 g ai/ha
  phytotoxicity rating ECHCG: 90
[1]; 250 g ai/ha
  phytotoxicity rating ECHCG: 100
[2]; 63 g ai/ha
  phytotoxicity rating CHEAL: 100
[2]; 250 g ai/ha
  phytotoxicity rating CHEAL: 100
[3]; 63 g ai/ha
  phytotoxicity rating IPOHE: 100
[3]; 250 g ai/ha
  phytotoxicity rating IPOHE: 100
[4]; 63 g ai/ha
  phytotoxicity rating DIGSA: 30
[4]; 250 g ai/ha
  phytotoxicity rating DIGSA: 95
[5]; 63 g ai/ha
  phytotoxicity rating SETVI: 90
[5]; 250 g ai/ha
  phytotoxicity rating SETVI: 100
[6]; 63 g ai/ha
  phytotoxicity rating ABUTH: 100
[6]; 250 g ai/ha
  phytotoxicity rating ABUTH: 100
[7]; 63 g ai/ha
  phytotoxicity rating CASOB: 100
[7]; 250 g ai/ha
  phytotoxicity rating CASOB: 100
[8]; 63 g ai/ha
  phytotoxicity rating AMARE: 100
[8]; 250 g ai/ha
  phytotoxicity rating AMARE: 100
[9]; 63 g ai/ha
  phytotoxicity rating SORHA: 70
[9]; 250 g ai/ha
  phytotoxicity rating SORHA: 100
[10]; 63 g ai/ha
  phytotoxicity rating CORN: 90
[10]; 250 g ai/ha
  phytotoxicity rating CORN: 100
[11]; 63 g ai/ha
  phytotoxicity rating RICE: 80
[11]; 250 g ai/ha
  phytotoxicity rating RICE: 100
[12]; 63 g ai/ha
  Pre-emerge Herbicidal Activity, phytotoxicity rating (0-100), ECHCG: 95
[12]; 250 g ai/ha
  Pre-emerge Herbicidal Activity, phytotoxicity rating (0-100), ECHCG: 100
[13]; 63 g ai/ha
  Pre-emerge Herbicidal Activity, phytotoxicity rating (0-100), CHEAL: 100
[13]; 250 g ai/ha
  Pre-emerge Herbicidal Activity, phytotoxicity rating (0-100), CHEAL: 100
[14]; 63 g ai/ha
  Pre-emerge Herbicidal Activity, phytotoxicity rating (0-100), IPOHE: 90
[14]; 250 g ai/ha
  Pre-emerge Herbicidal Activity, phytotoxicity rating (0-100), IPOHE: 100
[15]; 63 g ai/ha
  Pre-emerge Herbicidal Activity, phytotoxicity rating (0-100), DIGSA: 100
[15]; 250 g ai/ha
  Pre-emerge Herbicidal Activity, phytotoxicity rating (0-100), DIGSA: 100
[16]; 63 g ai/ha
  Pre-emerge Herbicidal Activity, phytotoxicity rating (0-100), SETVI: 100
[16]; 250 g ai/ha
  Pre-emerge Herbicidal Activity, phytotoxicity rating (0-100), SETVI: 100
[17]; 63 g ai/ha
  Pre-emerge Herbicidal Activity, phytotoxicity rating (0-100), ABUTH: 100
[17]; 250 g ai/ha
  Pre-emerge Herbicidal Activity, phytotoxicity rating (0-100), ABUTH: 100
[18]; 63 g ai/ha
  Pre-emerge Herbicidal Activity, phytotoxicity rating (0-100), CASOB: 100
[18]; 250 g ai/ha
  Pre-emerge Herbicidal Activity, phytotoxicity rating (0-100), CASOB: 95
[19]; 63 g ai/ha
  Pre-emerge Herbicidal Activity, phytotoxicity rating (0-100), SORHA: 99
[19]; 250 g ai/ha
  Pre-emerge Herbicidal Activity, phytotoxicity rating (0-100), SORHA: 100
[20]; 63 g ai/ha
  Pre-emerge Herbicidal Activity, phytotoxicity rating (0-100), AMARE: 100
[20]; 250 g ai/ha
  Pre-emerge Herbicidal Activity, phytotoxicity rating (0-100), AMARE: 100
[21]; 63 g ai/ha
  Pre-emerge phytotoxicity rating (0-100), crop damage, CORN: 95
[21]; 250 g ai/ha
  Pre-emerge phytotoxicity rating (0-100), crop damage, CORN: 99
[22]; 63 g ai/ha
  Pre-emerge phytotoxicity rating (0-100), crop damage, RICE: 90
[22]; 250 g ai/ha
  Pre-emerge phytotoxicity rating (0-100), crop damage, RICE: 99
